Among the test systems are OVCAR-5 ovarian; SW-620 colon; SF-295 CNS; MCF7 breast; SN12C renal; EKVX NSCLC; NCI-H460 lung; COLO 205 colon; DU-145 prostate; OVCAR-8 ovarian; NCI-H226 lung; M14 melanoma; HS 578T breast; OVCAR-3 ovarian; HOP-62 NSCLC; RXF 393 renal; HL-60(TB) leukemia; A549 NSCLC; LOX IMVI melanoma.
What all share (experiment): growth of human tumour cells (NCI), 48 h

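Following 48 hours of exposure in 96-well plates, responses at five concentrations were used to interpolate endpoints linearly. Definition used: TGI = concentration required for complete inhibition of growth.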 A value given as a limit tells only on which side of the number the result lay.

In PubChem BioAssay (NCI) one finds TGI data, which are given here for six compounds.

Consider `COC(OC)C1(c2ccccc2)Oc2ccccc2C1=O` (centres undefined), for which the TGI with OVCAR-5 ovarian, in the assay with SW-620 colon, in the assay on SF-295 CNS, in the assay on MCF7 breast, with SN12C renal and with EKVX NSCLC was above 100 µM throughout. The TGI in the assay on NCI-H460 lung, in the assay with COLO 205 colon, with DU-145 prostate, with OVCAR-8 ovarian, in the assay on NCI-H226 lung and with M14 melanoma was above 100 µM throughout. The TGI with HS 578T breast, in the assay with OVCAR-3 ovarian, in the assay with HOP-62 NSCLC, in the assay on RXF 393 renal, in the assay with HL-60(TB) leukemia and with A549 NSCLC was above 100 µM throughout. The TGI in the assay with LOX IMVI melanoma was above 100 µM.

As for `CN(C)C(=O)c1nnsc1NN=O`, the TGI in the assay on OVCAR-5 ovarian, in the assay with SW-620 colon, in the assay with SF-295 CNS, in the assay on MCF7 breast, in the assay on SN12C renal and in the assay with EKVX NSCLC was above 100 µM each time. Moreover, the TGI with NCI-H460 lung, with COLO 205 colon, in the assay on DU-145 prostate, with OVCAR-8 ovarian, in the assay on NCI-H226 lung and in the assay with M14 melanoma was above 100 µM each time. The TGI in the assay with HS 578T breast, in the assay on OVCAR-3 ovarian, in the assay with HOP-62 NSCLC, with RXF 393 renal, with HL-60(TB) leukemia and with A549 NSCLC was above 100 µM throughout. Further, the TGI in the assay with LOX IMVI melanoma is above 100 µM.

Regarding `C/C(Sc1ccccc1)=C1/CCCN(Cc2ccccc2)C1`, the TGI is 67.5 µM in the assay on OVCAR-5 ovarian; above 100 µM in the assay with SW-620 colon; 50.9 µM with SF-295 CNS; 57.5 µM in the assay on MCF7 breast; above 100 µM in the assay on EKVX NSCLC; 96.1 µM with NCI-H460 lung. For the same compound, the TGI in the assay with COLO 205 colon is 32.9 µM; in the assay on DU-145 prostate, above 100 µM; with OVCAR-8 ovarian, above 100 µM; in the assay with NCI-H226 lung, 41.6 µM; in the assay with M14 melanoma it was 35 µM; in the assay on HS 578T breast, 41.4 µM. In addition, the TGI with OVCAR-3 ovarian is 38.8 µM; in the assay with HOP-62 NSCLC, 61.4 µM; with RXF 393 renal, 36.3 µM; in the assay on HL-60(TB) leukemia, 32.6 µM; with A549 NSCLC, above 100 µM; with LOX IMVI melanoma it was 31.8 µM.

Consider `NC(=S)SC1=NNC2(C(=O)N1)c1ccccc1-c1ccccc12`, for which the TGI in the assay with SW-620 colon, with SF-295 CNS, in the assay with MCF7 breast, in the assay on SN12C renal, in the assay with EKVX NSCLC and in the assay with NCI-H460 lung was above 10 µM each time. Besides, the TGI in the assay with COLO 205 colon, with DU-145 prostate, in the assay with OVCAR-8 ovarian, in the assay with NCI-H226 lung, in the assay on M14 melanoma and with HS 578T breast was above 10 µM each time. Moreover, the TGI with HOP-62 NSCLC, in the assay with RXF 393 renal, in the assay on HL-60(TB) leukemia, in the assay with A549 NSCLC and in the assay on LOX IMVI melanoma was above 10 µM in each case.

Take `CCC(C#N)N(Cc1ccc(CN(C(=O)c2ccccc2)C(C#N)CC)cc1)C(=O)c1ccccc1` (centres undefined): the TGI with OVCAR-5 ovarian is above 100 µM; with SW-620 colon, 93 µM; in the assay on SF-295 CNS, above 100 µM; in the assay on MCF7 breast, 93.6 µM; with SN12C renal, 69.3 µM; with EKVX NSCLC, 93.3 µM. Further, the TGI in the assay with COLO 205 colon was 31.3 µM; in the assay on DU-145 prostate it was above 100 µM; with OVCAR-8 ovarian it was above 100 µM; with NCI-H226 lung, 78.1 µM; in the assay with M14 melanoma, above 100 µM; in the assay with HS 578T breast, above 100 µM. Further, the TGI in the assay on OVCAR-3 ovarian was 48.2 µM; in the assay with HOP-62 NSCLC it was 90.4 µM; in the assay on RXF 393 renal, above 100 µM; with HL-60(TB) leukemia, 84.1 µM; with A549 NSCLC, above 100 µM; in the assay on LOX IMVI melanoma, 31.4 µM.

As for `Fc1ccc(C2(CCCN3CCc4[nH]c5cc(F)ccc5c4C3)OCCO2)cc1`, the TGI in the assay on OVCAR-5 ovarian worked out at 20.5 µM; in the assay on SW-620 colon it was 27.7 µM; with SF-295 CNS, 27.4 µM; with MCF7 breast, 25.3 µM; in the assay with SN12C renal, 31.6 µM; in the assay with EKVX NSCLC, 29.1 µM. Also, the TGI was found to be 24.1 µM with NCI-H460 lung; 24.1 µM in the assay with COLO 205 colon; 28 µM in the assay with DU-145 prostate; 33.9 µM with OVCAR-8 ovarian; 38.6 µM in the assay with NCI-H226 lung; 7.15 µM in the assay on M14 melanoma. Moreover, the TGI turned out to be 17.4 µM with HS 578T breast; 25.7 µM with HOP-62 NSCLC; 26.7 µM with RXF 393 renal; 25.7 µM with HL-60(TB) leukemia; 29 µM in the assay with A549 NSCLC; 25.4 µM in the assay on LOX IMVI melanoma.
